# Columns and labels:
# [1] = system: ERK1/2 in Caco-2 NMU clones; test: ERK1/2 kinase activation in Caco-2 NMU clones with inhibitor; assay type: cell-based, human; conditions: preincubated 1 h with 20 µM inhibitor, immunoblot, n ≥ 4
# Method: CRC cells were lysed with RIPA buffer (100 mM TRIS-HCl, pH 7.5, 300 mM NaCl, 0.2 % SDS with 1 % IGEPAL CA-630 and the Halt™ Protease Inhibitor Cocktail (Thermo Fisher Scientific)) with subsequent centrifugation (18,000 x g, 4 °C, 20 min). Total protein concentration in lysate was quantified by BCA method (Pierce BCA Protein Assay; Thermo Fisher Scientific). Samples were loaded and separated by SDS-PAGE (Mini-PROTEAN TGX Stain-Free Gels; Bio-Rad Laboratories, CA, USA) and transferred onto nitrocellulose membranes (Bio-Rad Laboratories). NMU protein was detected with rabbit anti-NMU antibody (Genetex, CA, USA), for ERK1/2 kinases analysis mouse anti-ERK1/2 (Santa Cruz Biotechnology, USA) and rabbit anti-pERK1/2 antibodies (Invitrogen) were used. In EVs (extracellular vesicles) purity analysis we used rabbit antibodies anti-GM130, anti-annexin V and anti-flotilin-1 (Cell Signaling Technologies, Danvers, MA, USA). Proteins used as loading controls were detected by mouse anti-β-actin, mouse anti-α-tubulin or rabbit anti-GAPDH antibody (Abcam, Cambridge, GB). We used secondary HRP-conjugated goat anti-mouse (Santa Cruz Biotechnology) or anti-rabbit antibodies (Invitrogen). The signal was detected by chemiluminescence (Thermo Fisher Scientific) with Kodak BioMax Light Film from Eastman Kodak (NY, USA). […]
# Caco-2 NMU1 clone = test: Cell migration assay (Transwell); assay type: cell-based, human; conditions: 8 μm Transwell, 3 h, n = 4
# Method: Migration and invasion assays were performed using an 8 μm pore size Transwell system (Thermo Fischer Scientific). First, 2 × 10^5 cells, were incubated with CellTracker™ Green CMFDA Dye (Invitrogen) for 30 min at 37 °C with following washing step with PBS. Cells resuspended in 200 ul of growth medium without FBS were added inside the insert fixed in the well with 600 ul medium with 10 % FBS. For invasion assays, the chamber was pre-coated with 1 mg/ml Matrigel (Corning). Cells were incubated for 3 h (migration) or 6 h (invasion) at 37 °C. Cells on the apical side of the chamber were gently scraped off using cotton swabs, filters were washed in PBS and pictures were taken under the microscope Nikon Eclipse TE 2000-U. Pictures analysis was done with the use of FIJI image processing package.
smiles,measurement,setting,value
COc1cccc(-c2cc(=O)c3ccccc3o2)c1N [PD98059],Activity of the ERK1/2 signalling pathway in the presence of inhibitor,[1],sensitive
same,Cell migration in the presence of inhibitor,Caco-2 NMU1 clone,inhibited
